# Measurements: ChEMBL document CHEMBL1201862, “PubChem BioAssay data set” (2004)
# Active and inactive are the calls of the source.
# What was measured:
# cells [1] = format: functional, cell-based
# cells [2] = format: functional, cell-based; remark: listed apart in the source
# [3] = biological target: T1, Heat shock factor protein 1 (Mus musculus, UniProt P38532); test: decrease of HSF1-responsive luciferase luminescence – cell-based, NIH3T3, dose retest, confirmation (AID 2382); format: functional;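 further: NIH3T3 fibroblasts with HSF1-driven luciferase reporter stressed by proteasome inhibitor MG132; luminescence from HSF1-driven luciferase expression after 8 hours of MG132 stress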
# T1 sequence (P38532 whole entry): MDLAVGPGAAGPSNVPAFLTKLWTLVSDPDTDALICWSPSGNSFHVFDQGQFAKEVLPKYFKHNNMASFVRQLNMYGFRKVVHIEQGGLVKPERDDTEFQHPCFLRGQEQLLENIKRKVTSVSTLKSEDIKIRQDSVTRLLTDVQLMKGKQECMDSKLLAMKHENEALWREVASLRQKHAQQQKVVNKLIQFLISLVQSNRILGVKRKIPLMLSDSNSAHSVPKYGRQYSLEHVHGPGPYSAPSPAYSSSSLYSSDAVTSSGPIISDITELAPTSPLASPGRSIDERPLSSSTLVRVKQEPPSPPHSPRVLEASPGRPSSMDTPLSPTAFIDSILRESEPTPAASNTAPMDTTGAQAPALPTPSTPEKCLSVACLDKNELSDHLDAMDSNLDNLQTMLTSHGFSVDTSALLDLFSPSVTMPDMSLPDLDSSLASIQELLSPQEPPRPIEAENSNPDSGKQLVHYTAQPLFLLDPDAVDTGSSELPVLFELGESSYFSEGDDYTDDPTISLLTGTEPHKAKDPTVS
# Nonstructural protein 1 = Nonstructural protein 1 (Influenza A virus, UniProt Q194T2); format: functional, Influenza A virus (A/California/07/2009(H1N1))
# Sequence of Nonstructural protein 1 (Q194T2 whole entry): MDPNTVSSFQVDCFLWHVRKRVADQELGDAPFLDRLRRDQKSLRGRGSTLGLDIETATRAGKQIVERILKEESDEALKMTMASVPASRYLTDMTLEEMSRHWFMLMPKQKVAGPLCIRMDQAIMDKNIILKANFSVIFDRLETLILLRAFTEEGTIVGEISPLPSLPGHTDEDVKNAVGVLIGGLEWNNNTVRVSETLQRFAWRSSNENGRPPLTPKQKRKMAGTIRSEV
# Fatty acid synthase [4] = biological target: T2, Fatty acid synthase (Homo sapiens, UniProt P49327); test: inhibition of human FAS-TE enzyme activity – biochemical, endpoint fluorescence intensity, uHTS hits, dose response (AID 624327); format: functional;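 further: fluorescence from hydrolysis of an O-methyl fluorescein acyl ester substrate by the enzyme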
# T2 sequence (P49327 whole entry): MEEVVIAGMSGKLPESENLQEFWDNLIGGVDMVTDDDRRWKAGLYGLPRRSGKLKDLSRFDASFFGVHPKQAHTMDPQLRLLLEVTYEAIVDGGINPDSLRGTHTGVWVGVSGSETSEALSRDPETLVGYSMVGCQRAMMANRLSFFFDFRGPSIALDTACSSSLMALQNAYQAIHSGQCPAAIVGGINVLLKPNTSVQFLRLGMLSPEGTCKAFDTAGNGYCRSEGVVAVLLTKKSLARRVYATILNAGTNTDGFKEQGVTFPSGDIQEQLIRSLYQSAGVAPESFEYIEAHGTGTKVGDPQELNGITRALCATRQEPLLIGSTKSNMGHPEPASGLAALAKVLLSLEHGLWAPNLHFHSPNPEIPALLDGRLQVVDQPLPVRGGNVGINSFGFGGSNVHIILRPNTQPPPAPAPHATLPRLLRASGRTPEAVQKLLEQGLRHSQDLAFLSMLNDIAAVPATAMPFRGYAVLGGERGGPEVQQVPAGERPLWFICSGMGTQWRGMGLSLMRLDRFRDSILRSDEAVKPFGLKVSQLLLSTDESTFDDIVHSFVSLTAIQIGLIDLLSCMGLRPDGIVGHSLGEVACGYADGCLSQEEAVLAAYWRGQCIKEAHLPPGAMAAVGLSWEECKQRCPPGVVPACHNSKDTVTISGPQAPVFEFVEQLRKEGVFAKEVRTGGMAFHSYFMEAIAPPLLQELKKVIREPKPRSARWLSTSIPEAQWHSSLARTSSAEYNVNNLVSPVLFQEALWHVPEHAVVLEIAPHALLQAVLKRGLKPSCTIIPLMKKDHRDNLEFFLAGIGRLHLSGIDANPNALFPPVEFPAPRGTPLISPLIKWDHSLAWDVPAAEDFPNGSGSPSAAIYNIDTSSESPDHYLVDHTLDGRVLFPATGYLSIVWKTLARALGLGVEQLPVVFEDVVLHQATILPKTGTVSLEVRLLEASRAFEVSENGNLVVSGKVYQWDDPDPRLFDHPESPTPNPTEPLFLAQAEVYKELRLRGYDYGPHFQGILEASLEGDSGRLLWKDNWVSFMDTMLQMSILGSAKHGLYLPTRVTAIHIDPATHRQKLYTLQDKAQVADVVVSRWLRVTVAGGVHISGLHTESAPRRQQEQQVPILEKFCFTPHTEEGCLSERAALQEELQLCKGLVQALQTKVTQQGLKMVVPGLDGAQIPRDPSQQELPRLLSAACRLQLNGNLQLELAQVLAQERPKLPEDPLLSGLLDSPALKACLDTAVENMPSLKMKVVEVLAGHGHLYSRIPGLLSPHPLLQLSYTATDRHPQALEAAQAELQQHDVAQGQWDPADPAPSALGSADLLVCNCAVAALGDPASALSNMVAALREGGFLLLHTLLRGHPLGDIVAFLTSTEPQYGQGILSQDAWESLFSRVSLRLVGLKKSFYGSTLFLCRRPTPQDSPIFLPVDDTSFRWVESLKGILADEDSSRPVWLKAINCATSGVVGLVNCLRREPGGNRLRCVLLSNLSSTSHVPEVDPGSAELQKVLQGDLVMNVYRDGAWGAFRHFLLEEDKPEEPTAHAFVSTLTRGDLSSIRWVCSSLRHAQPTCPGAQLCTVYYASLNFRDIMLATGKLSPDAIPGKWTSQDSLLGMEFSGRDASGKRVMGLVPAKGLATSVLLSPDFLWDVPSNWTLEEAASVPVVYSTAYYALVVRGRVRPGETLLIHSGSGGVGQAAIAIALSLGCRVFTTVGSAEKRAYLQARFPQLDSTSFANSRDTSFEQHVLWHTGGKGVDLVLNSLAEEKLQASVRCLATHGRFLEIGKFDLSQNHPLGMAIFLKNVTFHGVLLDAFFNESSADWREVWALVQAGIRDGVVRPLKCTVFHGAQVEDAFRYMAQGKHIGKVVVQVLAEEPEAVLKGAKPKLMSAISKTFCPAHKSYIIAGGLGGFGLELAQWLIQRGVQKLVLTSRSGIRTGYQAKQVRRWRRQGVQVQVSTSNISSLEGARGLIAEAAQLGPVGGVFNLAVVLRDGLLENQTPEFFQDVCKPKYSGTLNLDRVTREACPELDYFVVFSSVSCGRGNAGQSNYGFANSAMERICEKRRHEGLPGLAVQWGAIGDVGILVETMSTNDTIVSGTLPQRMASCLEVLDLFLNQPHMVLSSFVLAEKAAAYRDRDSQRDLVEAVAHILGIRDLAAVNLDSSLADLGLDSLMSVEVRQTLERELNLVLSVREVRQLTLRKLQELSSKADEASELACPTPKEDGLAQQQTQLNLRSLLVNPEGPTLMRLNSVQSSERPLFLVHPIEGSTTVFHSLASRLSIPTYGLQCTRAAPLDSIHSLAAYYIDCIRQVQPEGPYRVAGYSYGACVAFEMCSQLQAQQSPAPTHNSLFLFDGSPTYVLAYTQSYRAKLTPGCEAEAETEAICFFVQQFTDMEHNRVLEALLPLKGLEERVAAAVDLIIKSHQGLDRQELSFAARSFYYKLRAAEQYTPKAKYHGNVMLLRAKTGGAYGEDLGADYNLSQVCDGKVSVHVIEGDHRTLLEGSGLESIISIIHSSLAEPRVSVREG
# Fatty acid synthase [5] = biological target: T2, Fatty acid synthase; test: inhibition of human FAS-TE enzyme activity – biochemical, kinetic fluorescence intensity, dose response (AID 624326); format: functional;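 further: rate of fluorescence rise from hydrolysis of a fluorogenic O-methyl fluorescein ester substrate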
# [6] = HPDE-C7 pancreatic duct cell viability loss – fluorescence, HTS (AID 430); format: functional, cell-based; settings: Homo sapiens
# [7] = viability loss of HPDE-C7K cells – cell-based, fluorescence, HTS, primary screen (AID 431); format: functional; settings: Homo sapiens
# [8] = viability of PTEN-deleted HCT116 cells – cell-based, HCT116 PTEN knockout, dose response (AID 1047); format: functional;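 further: HCT116 colon tumor cells with PTEN knocked out; cells exposed to compound for 60 hours before readout; potency for loss of cell viability measured by luminescence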
# [9] = viability of HCT116 lacking mutant beta-catenin – cell-based, human colon tumor, dose response (AID 1045); format: functional;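 further: HCT116 colon tumor cells with beta catenin knocked out; cells exposed to compound for 60 hours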
# [10] = microbe, parasite or virus in culture; format: functional; settings: Mycobacterium tuberculosis
# [11] = biological target: Induced myeloid leukemia cell differentiation protein Mcl-1 (Homo sapiens, UniProt Q07820); format: functional
# Sequence of Induced myeloid leukemia cell differentiation protein Mcl-1 (Q07820 whole entry, the tested form may be a part): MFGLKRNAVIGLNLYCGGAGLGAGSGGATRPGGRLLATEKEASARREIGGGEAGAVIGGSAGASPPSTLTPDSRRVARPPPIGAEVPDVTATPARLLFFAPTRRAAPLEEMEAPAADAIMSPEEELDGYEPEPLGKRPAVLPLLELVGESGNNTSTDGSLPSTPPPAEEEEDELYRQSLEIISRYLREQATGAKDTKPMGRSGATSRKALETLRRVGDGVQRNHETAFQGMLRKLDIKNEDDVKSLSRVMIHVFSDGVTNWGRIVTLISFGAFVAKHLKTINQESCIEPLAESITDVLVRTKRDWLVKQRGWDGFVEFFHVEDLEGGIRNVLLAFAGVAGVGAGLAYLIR
# [12] = biological target: T3, Oxysterols receptor LXR-beta (Homo sapiens, UniProt P55055); format: functional, cell-based;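 further: Cell-based luminescence dose-response assay of agonist activity at LXR, run as a confirmatory counterscreen to a daf-12 agonist screen; HEK293 cells with Gal4-LXR fusion and GAL4-driven luciferase reporter; agonist potency from rising luciferase signal of a Gal4-LXR reporter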
# T3 sequence (P55055 whole entry): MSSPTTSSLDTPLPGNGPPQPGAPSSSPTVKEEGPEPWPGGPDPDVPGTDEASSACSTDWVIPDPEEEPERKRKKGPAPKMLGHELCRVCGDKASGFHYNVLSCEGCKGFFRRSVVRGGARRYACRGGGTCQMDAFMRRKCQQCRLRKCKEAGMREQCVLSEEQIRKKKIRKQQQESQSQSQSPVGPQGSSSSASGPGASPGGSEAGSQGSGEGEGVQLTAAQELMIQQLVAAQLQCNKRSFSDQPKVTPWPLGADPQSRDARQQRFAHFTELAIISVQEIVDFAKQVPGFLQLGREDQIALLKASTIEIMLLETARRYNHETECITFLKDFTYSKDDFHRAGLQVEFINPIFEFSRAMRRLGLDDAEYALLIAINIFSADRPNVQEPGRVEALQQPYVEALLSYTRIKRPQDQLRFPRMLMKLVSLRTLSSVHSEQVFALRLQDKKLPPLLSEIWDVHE
# cells [13] = test: cells
# [14] = Trypanosoma cruzi growth suppression in host cells – NIH3T3 host cells, beta-gal luminescence, confirmation (AID 2044); format: functional, cell-based;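 further: intracellular parasites grown in NIH/3T3 mouse fibroblasts as host cells; luminescent beta-galactosidase reporter signal from transgenic T. cruzi replicating inside host cells; inhibitors lower the luminescence signal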
# [15] = NIH3T3 cell viability loss – ATP luminescence, mouse fibroblasts, counter-screen, dose response (AID 2010); format: functional, cell-based;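 further: cells exposed to compound for about 90 hours before reading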
structure (smiles),measurement,setting,value
COc1ccc(C2CC(c3cccs3)=NN2C(=O)CSc2nc(=O)n3cc(C)ccc3n2)cc1 (stereo unspecified),EC50,cells [1],> 350 µM (not active)
same,EC50,cells [2],> 350 µM (not active)
N=C(NOC(=O)c1cccs1)c1ccc(Cl)cc1,EC50,cells [1],> 350 µM (not active)
same,EC50,cells [2],7.41 µM (active)
COc1cc(/C=N/NC(=O)c2cncc(Br)c2)cc([N+](=O)[O-])c1O,EC50,[3],0.977 µM (active)
same,IC50,Nonstructural protein 1,4.26 µM (active)
same,IC50,Fatty acid synthase [4],18.7 µM (active)
same,IC50,Fatty acid synthase [5],9.66 µM (active)
COc1ccc(N=C(S)Nc2ccccn2)c(OC)c1,EC50,cells [1],> 350 µM (not active)
same,EC50,cells [2],53.6 µM (active)
Cc1cc2oc3c(c(=O)c2cc1C)C(c1cccc(Br)c1)N(Cc1ccco1)C3=O (stereo unspecified),EC50,[6],> 20 µM (not active)
same,EC50,[7],> 20 µM (not active)
same,EC50,[8],9.43 µM (active)
same,EC50,[9],8.39 µM (active)
Oc1ccccc1NCC(O)Cn1ccc2ccccc21 (stereo unspecified),EC50,[6],12.8 µM (active)
same,CC50,[10],> 40 µM (active)
same,EC50,[7],13.2 µM (active)
same,IC50,[11],4.49 µM (active)
COc1cccc(/C=N/NC(=O)CNC(=O)C(c2ccccc2)c2ccccc2)c1O,EC50,cells [1],30.6 µM (active)
same,EC50,cells [2],> 350 µM (not active)
COc1ccc2oc(C(=O)Nc3ccccn3)c(C)c2c1,EC50,[12],> 67.5 µM (inactive)
same,EC50,cells [13],> 67.5 µM (inactive)
Cc1cccc(-c2cc3c(N=O)c4ccccc4c-3[nH]n2)c1,EC50,[14],4.86 µM (active)
same,EC50,[15],> 60 µM (not active)
same,EC50,[12],> 67.5 µM (inactive)
same,EC50,cells [13],> 67.5 µM (inactive)
